From patent publication US11118200B2, “Method for preparing amines from aldehydes and ketones by biocatalysis” (COMMISSARIAT A L'ENERGIE ATOMIQUE ET AUX ENERGIES …, priority 2017, dated 2021)
Marks after values point to notes of the source that are not given here.

How the values were obtained:
[1] = test system: enzyme of SEQ ID NO:3; test: Screening of carbonyl-containing compounds with ammonia as amine source (specific activity, absorbance at 340 nm); type: biochemical, Microbacterium sp. MA1; settings: 10 mM of carbonyl-containing compound, ammonia as amine source
Method: (§1) All the reactions were conducted at 25° C. in spectrophotometric cell (10 mm light path). To a mixture of ammonium formate buffer (2 M NH4HCO2/NH4OH, pH 9.5), NADH or NADPH (0.2 mM) and an appropriate amount of purified enzyme was added.

[2] = test system: enzyme of SEQ ID NO:1; test: as above; type: biochemical, Mycobacterium smegmatis; settings: 10 mM of carbonyl-containing compound, ammonia as amine source
Method: as §1

[3] = test system: enzyme of SEQ ID NO:2; test: as above; type: biochemical, Cystobacter fuscus DSM 2262; settings: 10 mM of carbonyl-containing compound, ammonia as amine source
Method: as §1

[4] = test system: enzyme of SEQ ID NO:2; test: Reduction of cyclic imine substrates; type: biochemical, Cystobacter fuscus DSM 2262
[5] = test system: enzyme of SEQ ID NO:3; test: Reduction of cyclic imine substrates; type: biochemical, Microbacterium sp. MA1
[6] = test system: enzyme of SEQ ID NO:1; test: Reduction of cyclic imine substrates; type: biochemical, Mycobacterium smegmatis
[7] = test system: enzyme of SEQ ID NO:4; test: Reduction of cyclic imine substrates; type: biochemical, Aminomonas paucivorans DSM 12260
[8] = test system: enzyme of SEQ ID NO:4; test: Screening of carbonyl-containing compounds with ammonia as amine source (specific activity, absorbance at 340 nm); type: biochemical, Aminomonas paucivorans DSM 12260; set-up: key to Detection of the expected compound, SEQ ID NO: 4: d: detected activity; nd: not detected activity; settings: ammonia as amine source
Method: (§2) All the reactions were conducted at 25° C. in spectrophotometric cell (10 mm light path). To a mixture of ammonium formate buffer (2 M NH4HCO2/NH4OH, pH 9.5), NADH or NADPH (0.2 mM) and an appropriate amount of purified enzyme was added. Carbonyl-containing compound (5 or 10 mM) is then added to initiate the reaction (reaction final volume 100 μL). The initial slope measured at 340 nm determined the specific activity of the enzyme according to Beer-Lambert's law and the molar absorptivity of β-NADH (ϵ=6298 M^−1 cm^−1).

[9] = target: PheDH-AmDH K77S/N276L (Pseudobacillus badius, UniProt Q59224, K78S/N277L); settings: prior-art engineered enzyme; cited from earlier work
Chain of PheDH-AmDH K77S/N276L (Q59224 whole entry K78S/N277L): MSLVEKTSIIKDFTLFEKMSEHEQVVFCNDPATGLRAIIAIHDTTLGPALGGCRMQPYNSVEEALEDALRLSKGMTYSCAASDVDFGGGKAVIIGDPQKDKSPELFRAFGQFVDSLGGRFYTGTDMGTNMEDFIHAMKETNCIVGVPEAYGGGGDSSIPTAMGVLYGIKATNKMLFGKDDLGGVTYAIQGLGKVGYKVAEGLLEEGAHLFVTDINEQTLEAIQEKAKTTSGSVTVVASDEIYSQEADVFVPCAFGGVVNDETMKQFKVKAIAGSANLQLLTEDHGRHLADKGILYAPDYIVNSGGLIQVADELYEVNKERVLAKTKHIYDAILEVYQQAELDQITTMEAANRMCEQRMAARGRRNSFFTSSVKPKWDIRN

[10] = test system: enzyme of SEQ ID NO:5; test: Screening of carbonyl-containing compounds with ammonia as amine source (specific activity, absorbance at 340 nm); type: biochemical, Mycobacterium vaccae ATCC 25954; settings: mixture NADH/NADPH (0.1 mM each), 5 mM of carbonyl-containing compound
Method: as §2, with “To a mixture of ammonium formate buffer (2 M NH4HCO2/NH4OH, pH 9.5), NADH or NADPH (0.2 mM) and an appropriate amount of purified enzyme was added.” left out

[11] = test system: enzyme of SEQ ID NO:6; test: as above; type: biochemical, Mycobacterium sp. GA-2829; settings: mixture NADH/NADPH (0.1 mM each), 10 mM of carbonyl-containing compound
Method: as §2, with “To a mixture of ammonium formate buffer (2 M NH4HCO2/NH4OH, pH 9.5), NADH or NADPH (0.2 mM) and an appropriate amount of purified enzyme was added.” left out

[12] = 0.2 mM NADPH (best of NADH/NADPH)
[13] = 0.2 mM NADH (best of NADH/NADPH)
[14] = 0.2 mM NADPH (best of NADH/NADPH), listed as drawing 134

SMILES | Specific activity, SEQ ID NO: 3 [1, 12] | Specific activity, SEQ ID NO: 1 [2, 12] | Specific activity, SEQ ID NO: 2 [3, 12] | also measured
CCCC(C)=O [drawing 142] | 51.2^b mU.mg^-1 | 9.0^b mU.mg^-1 | 6.4^b mU.mg^-1 | –
CC(=O)C(C)C | 245.6^b mU.mg^-1 | 125.8^b mU.mg^-1 | – | Specific activity, SEQ ID NO: 2 [3, 13]: 68.2^a mU.mg^-1
CC1=NCCC1 | – | – | – | reduction of cyclic imine by enzyme of SEQ ID NO:2 (in words) [4]: able to catalyze; reduction of cyclic imine by enzyme of SEQ ID NO:3 (in words) [5]: able to catalyze; reduction of cyclic imine by enzyme of SEQ ID NO:1 (in words) [6]: able to catalyze; reduction of cyclic imine by enzyme of SEQ ID NO:4 (in words) [7]: able to catalyze
CCC(=O)CC | 192.0^b mU.mg^-1 | 48.2^b mU.mg^-1 | 3.6^b mU.mg^-1 | –
CC(=O)C1CCCCC1 | 64.0^b mU.mg^-1 | 2.1^b mU.mg^-1 | – | –
CC1CC(=O)CC(C)C1 (centres unmarked) | 61.6^b mU.mg^-1 | 9.7^b mU.mg^-1 | – | –
CCC(C)C=O (centres unmarked) [drawing 148] | – | 75.2^b mU.mg^-1 | – | Specific activity, SEQ ID NO: 3 [1, 13]: 159.4^a mU.mg^-1; Specific activity, SEQ ID NO: 2 [3, 13]: 231.9^a mU.mg^-1
O=C1CCCCC1 [drawing 120] | – | – | – | Specific activity, SEQ ID NO: 4 ([8]; 0.2 mM NADH (best of NADH/NADPH), 10 mM of carbonyl-containing compound): 9.82^a mU.mg^-1; Detection of the expected compound, SEQ ID NO: 4 ([8]; pH 9.5, 25° C.): d
O=C1C=CCCC1 | 37.1^b mU.mg^-1 | 7.4^b mU.mg^-1 | – | Specific activity, SEQ ID NO: 2 [3, 13]: 2.5^a mU.mg^-1
CC1CCCC(=O)C1 (racemic) [3-methylcyclohexanone] | 206.5 mU.mg^-1 | 160.9 mU.mg^-1 | 37.0^b mU.mg^-1 | Specific activity, SEQ ID NO: 3 [1, 14]: 206.5^b mU.mg^-1; Specific activity, SEQ ID NO: 1 [2, 14]: 160.9^b mU.mg^-1; specific activity of PheDH-AmDH K77S/N276L [9]: 41.1 mU·mg^−1
O=C1CCCCC1 [drawing 168] | – | – | – | Specific activity, SEQ ID NO: 5 [10]: 75.6 mU.mg^-1; Specific activity, SEQ ID NO: 6 [11]: 13.9 mU.mg^-1
CCCC(=O)CC | 28.1^b mU.mg^-1 | 6.8^b mU.mg^-1 | – | –
CC1CCC(=O)CC1 | 170.1^b mU.mg^-1 | – | 20.4^b mU.mg^-1 | Specific activity, SEQ ID NO: 1 [2, 13]: 85.2^a mU.mg^-1
